{"source": "patent US6369104B1", "about": "“Biocidal compositions and use thereof containing a synergistic mixture of glutaraldehyde and 2,2-dibromo-3 nitrilo propionamide” (Hercules Incorporated, priority 2000, dated 2002)", "tested_on": "Klebsiella pneumoniae", "assay": "Checkerboard growth inhibition (turbidity at 590 nm) with Kull synergism index", "assay_type": "cell-based", "experimental": "Glutaraldehyde and DBNPA were added in varying ratios over a wide range of concentrations to a liquid nutrient medium which was subsequently inoculated with a standard volume of a suspension of the facultative bacterium Klebsiella pneumoniae. Growth was measured by turbidity at 590 nm in a microplate spectrophotometer. The effect of the biocide chemicals, alone and in combination, is to reduce the growth (turbidity) of the bacterial cells as compared to controls not treated with the chemicals. Additions of the biocides, alone and in varying combinations and concentrations, were made according to the accepted “checkerboard” technique described by M. T. Kelly and J. Matsen, Antimicrobial Agents and Chemotherapy. 9:440 (1976). Growth was measured after overnight incubation at 30° C. Each unique sample concentration was tested in triplicate. The percent reduction of each treated sample was calculated from the relationship: [formula]\nPlotting the % reduction of turbidity against the concentration of each biocide acting alone results in a dose-response curve, from which the biocide dose necessary to achieve a given % reduction can be interpolated.\nSynergism was determined by the method of calculation described by F. C. Kull, P. C. Eisman, H. D. Sylwestrowicz and R. L. Mayer, Applied Microbiology, 9:538 (1961) using the relationship:\n(QA/Qa)+(QB/Qb)=Synergism Index (SI)\nQa=quantity of compound A, acting alone, producing an end point\nQb=quantity of compound B, acting alone, producing an end point\nQA=quantity of compound A, in mixture, producing an end point\nQB=quantity of compound B, in mixture, producing an end point\nThe end point used in the calculations is the % reduction caused by each mixture of A and B. QA and QB are the individual concentrations in the A/B mixture causing a given % reduction. QA and QB are determined by interpolation from the respective dose-response curves of A and B as those concentrations of A and B acting alone which produce the same % reduction as each specific mixture produced.\nDose-response curves for each active acting alone were determined by linear regression analysis of dose-response data. Data were fitted to a curve represented by the equation shown with each data set. After linearizing the data, the contributions of each biocide component in the biocide mixtures to the inhibition of turbidity were determined by a linear regression method with the dose-response curve of the respective biocide. If, for example, quantities of QA and QB are sufficient to give a 50% reduction in turbidity, Qa and Qb are those quantities of A and B acting alone respectively, found to give 50% reduction in turbidity. A synergism index (SI) is calculated for each combination of A and B.\nWhere the SI is less than 1, synergism exists. Where the SI=1, additivity exists. Where SI is greater than 1, antagonism exists.\nThe data in the following tables come from treating Klebsiella pneumoniae, a common nuisance bacterial type found in industrial cooling waters and in pulping and paper making systems, with varying ratios and concentrations of glutaraldehyde and DBNPA. Shown for each combination is the % reduction of turbidity (%I), the calculated SI, and the weight ratio of glutaraldehyde and DBNPA.", "data": [{"molecule": "O=CCCCC=O", "note": "[Glutaraldehyde, glutaraldehyde]", "values": [{"measurement": "% I (% reduction of turbidity)", "setting": "Table I, Glutaraldehyde 9.4 ppm alone", "value": 0, "unit": "%"}, {"measurement": "% I (% reduction of turbidity)", "setting": "Table I, Glutaraldehyde 18.8 ppm alone", "value": 0, "unit": "%"}, {"measurement": "% I (% reduction of turbidity)", "setting": "Table I, Glutaraldehyde 37.5 ppm alone", "value": 6, "unit": "%"}, {"measurement": "% I (% reduction of turbidity)", "setting": "Table I, Glutaraldehyde 75 ppm alone", "value": 22, "unit": "%"}, {"measurement": "% I (% reduction of turbidity)", "setting": "Table I, Glutaraldehyde 150 ppm alone", "value": 53, "unit": "%"}, {"measurement": "% I (% reduction of turbidity)", "setting": "Table I, Glutaraldehyde 300 ppm alone", "value": 100, "unit": "%"}, {"measurement": "% I (% reduction of turbidity)", "setting": "Table II, Glutaraldehyde 9.4 ppm alone", "value": 2, "unit": "%"}, {"measurement": "% I (% reduction of turbidity)", "setting": "Table II, Glutaraldehyde 18.8 ppm alone", "value": 6, "unit": "%"}, {"measurement": "% I (% reduction of turbidity)", "setting": "Table II, Glutaraldehyde 37.5 ppm alone", "value": 13, "unit": "%"}, {"measurement": "% I (% reduction of turbidity)", "setting": "Table II, Glutaraldehyde 75 ppm alone", "value": 28, "unit": "%"}, {"measurement": "% I (% reduction of turbidity)", "setting": "Table II, Glutaraldehyde 150 ppm alone", "value": 58, "unit": "%"}, {"measurement": "% I (% reduction of turbidity)", "setting": "Table II, Glutaraldehyde 300 ppm alone", "value": 100, "unit": "%"}]}, {"molecule": "N#CC(Br)(Br)C(N)=O", "note": "[DBNPA, 2,2-dibromo-3-nitrilopropionamide]", "values": [{"measurement": "% I (% reduction of turbidity)", "setting": "Table I, DBNPA 3.2 ppm alone", "value": 60, "unit": "%"}, {"measurement": "% I (% reduction of turbidity)", "setting": "Table I, DBNPA 6.3 ppm alone", "value": 62, "unit": "%"}, {"measurement": "% I (% reduction of turbidity)", "setting": "Table I, DBNPA 12.5 ppm alone", "value": 65, "unit": "%"}, {"measurement": "% I (% reduction of turbidity)", "setting": "Table I, DBNPA 25 ppm alone", "value": 72, "unit": "%"}, {"measurement": "% I (% reduction of turbidity)", "setting": "Table I, DBNPA 50 ppm alone", "value": 86, "unit": "%"}, {"measurement": "% I (% reduction of turbidity)", "setting": "Table I, DBNPA 100 ppm alone", "value": 100, "unit": "%"}, {"measurement": "% I (% reduction of turbidity)", "setting": "Table II, DBNPA 3.2 ppm alone", "value": 84, "unit": "%"}, {"measurement": "% I (% reduction of turbidity)", "setting": "Table II, DBNPA 6.3 ppm alone", "value": 85, "unit": "%"}, {"measurement": "% I (% reduction of turbidity)", "setting": "Table II, DBNPA 12.5 ppm alone", "value": 87, "unit": "%"}, {"measurement": "% I (% reduction of turbidity)", "setting": "Table II, DBNPA 25 ppm alone", "value": 89, "unit": "%"}, {"measurement": "% I (% reduction of turbidity)", "setting": "Table II, DBNPA 50 ppm alone", "value": 95, "unit": "%"}, {"measurement": "% I (% reduction of turbidity)", "setting": "Table II, DBNPA 100 ppm alone", "value": 100, "unit": "%"}]}]}
